In patent US20250207127A1, “PHYTOECDYSONES AND/OR 20-HYDROXYECDYSONE DERIVATIVES IN COMBINATION WITH AN ACTIVE INGREDIENT FOR RESTORING SMN EXPRESSION, FOR USE IN THE TREATMENT OF SPINAL MUSCULAR ATROPHY” (BIOPHYTIS, priority 2021, published 2025):
Strand notation (5' to 3'): a small letter for the sugar, then the base; units joined by * are phosphorothioate-linked, units joined directly phosphodiester-linked; [ ] holds rarer units or linkages, { } end groups; capitals alone tell only the bases. e = 2'-O-(2-methoxyethyl) (MOE); [5mC] = 5-methylcytosine

Key:
Assay type in all cases: in vivo, mouse
[1] = tested on: SMA mice (Smn^Δ7/Δ7; huSMN2^+/−); experiment: Open-field test (movement capacities) of SMA mice; conditions: at P15, 5 minutes, mean±SEM
Experimental: On the day of injection, the ASO stock solution is diluted to the concentration of 2 μg/μL in 0.9% NaCl. Methylene blue 0.04% is added to the solution as an injection control. Newborn SMA mice receive a single dose of ASO 10-27 or ASO mismatch of 8 μg on the 1st post-natal day (PO) by unilateral intra-cerebro-ventricular injection using a Hamilton syringe and a 32G needle. The injection site is located 1 mm from the sagittal suture, between bregma and lambda, landmarks visible through the skin at PO. The needle is positioned perpendicular to the injection site on the surface of the skin and inserted approximately 3 mm deep to reach the lateral ventricle. […]
(§1) We performed phenotypic analyses of severe SMA type 2 mice treated with BIO101 alone or a mismatch ASO or ASO 10-27 alone, or with an ASO 10-27+BIO101 combined treatment from PO. […] We, on the one hand, evaluated the movement capacities by the open-field test (FIG. 3), as well as the muscular fatigability by grip-test (FIG. 4), as previously described (Biondi et al., 2008; Branchu et al., 2013; Chali et al., 2016).
The device used for open-field testing consists of a plastic box measuring 28×28×5 cm with a field grid divided into 16 tiles measuring 7 cm×7 cm. […] The behavioural measurements were recorded by the experimenter during these 5 minutes and the total number of crossed tiles was recorded.

[2] = tested on: SMA mice (Smn^Δ7/Δ7; huSMN2^+/−); experiment: Survival of severe SMA mice treated from P0
Description: (§2) The antisense oligonucleotide (ASO) of sequence SEQ ID NO: 23 (5′-TCACTTTCATAATGCTGG-3′), of reference ISIS 396443, also known under the name ISIS-SMNRx, and called in the remainder of the description ASO 10-27, complementary to 18 bases (bases 10 to 27) of intron 7 of the SMN2 gene (targeting a site in intron 7, called ISS-N1, which represses the inclusion of exon 7 of the pre-messenger RNA (pre-mRNA) of the SMN2 gene) having modified nucleotides 2′-O-methoxyethyl on the 2′ carbon atom of deoxyribose for each base, with a phosphorothioate backbone and 5-methyl cytosines and the control ASO (denoted mismatch) of sequence SEQ ID NO°: 24 (5′-TTAGTTTAATCACGCTCG-3′) (Singh et al. 2006; Williams et al. 2009), were synthesised and purified as previously described (Baker et al. 1997, Hua et al. 2008; Passini et al., 2011). The oligonucleotides are resuspended at a concentration of 8 μg/μL in 0.9% NaCl and stored at −20° C.
(§3) On the day of injection, the ASO stock solution is diluted to the concentration of 2 μg/μL in 0.9% NaCl. Methylene blue 0.04% is added to the solution as an injection control. Newborn SMA mice receive a single dose of ASO 10-27 or ASO mismatch of 8 μg on the 1st post-natal day (PO) by unilateral intra-cerebro-ventricular injection using a Hamilton syringe and a 32G needle. The injection site is located 1 mm from the sagittal suture, between bregma and lambda, landmarks visible through the skin at PO. The needle is positioned perpendicular to the injection site on the surface of the skin and inserted approximately 3 mm deep to reach the lateral ventricle.
(§4) The complementary treatment BIO101 complexed with cyclodextrin is administered daily to the mice from the first post-natal day (PO) orally at a dose of 50 mg/kg using a pipette.
(§5) A severe SMA mouse model was used on a FVB/NRj genetic background, characterised by the invalidation of exon 7 of the murine Smn gene and expressing two copies of the human SMN2 transgene (Smn^Δ7/Δ7; huSMN2−/+) (Hsieh et al., 2000). The mice resulting from these crosses having the genotype “FVB/NRj-Smn^Δ7/Δ7 huSMN2−/+2 copies” are described as “SMA” (Hsieh et al., 2000). SMA mice were treated with either BIO101 alone or a mismatch ASO or an ASO 10-27 alone, or with an ASO 10-27+BIO101 combined treatment starting from PO. Survival (FIG. 1) and weight

[3] = tested on: SMA mice (Smn^Δ7/Δ7; huSMN2^+/−); experiment: Grip-test (muscle fatigability) of SMA mice; conditions: relative to mismatch ASO
Experimental: as §3, §4, §1
In order to assess the muscle fatigability, the grip strength of the mice's forelimbs was tested. […] The time spent hanging on is recorded. […]

[4] = tested on: SMA mice (Smn^Δ7/Δ7; huSMN2^+/−); experiment: Weight evolution of severe SMA mice treated from P0; conditions: relative to mismatch ASO
Description: as §2, §3, §4, §5

[5] = SMA mice, ASO 8 μg single ICV injection at P0, BIO101 50 mg/kg oral daily from P0

5′-TCACTTTCATAATGCTGG-3′ (antisense eT*e[5mC]*eA*e[5mC]*eT*eT*eT*e[5mC]*eA*eT*eA*eA*eT*eG*e[5mC]*eT*eG*eG) [ASO 10-27, antisense oligonucleotide complementary to bases 10 to 27 of intron 7 of the SMN2 gene]
total number of crossed tiles (open field) [1]: 70±20 tiles
median survival [2, 5]: 18 days
improvement in animal survival ([2]; median survival compared to mismatch ASO control group): 38%
improvement of resistance to fatigue (grip-test) ([3]; at P7): not improved
improvement of resistance to fatigue (grip-test) ([3]; at P15): 7.7%
increase of average weight ([4]; at P7): does not increase
increase of average weight ([4]; at P8): 9.9%
increase of average weight ([4]; at P9): 13.9%
increase of average weight ([4]; at P10): 16%

5′-TTAGTTTAATCACGCTCG-3′ (listed as DNA, chemistry not given here) [mismatch ASO, control ASO (denoted mismatch)]
average lifespan of the mouse pups [2, 5]: 13 days
median survival [2, 5]: 13 days
